Experimental data published in a melting point compilation (Tetko et al.; mined from patent text by program, amines drawn as free bases though some values may be those of a salt).

melting point	Compound
88 to 93 °C	COC(=O)CCc1cc2cc(Cl)ccc2n1S(=O)(=O)c1cccc2ccccc12
202 to 205 °C	O=C(CNc1ccc2[nH]c(=O)oc2c1)N1CCC(Cc2ccc(F)cc2)CC1
62 to 64 °C	COC(=O)C[C@@H](CC(=O)C=Cc1c(-c2ccc(F)cc2)c(-c2ccccc2)c(C(=O)Nc2ccccc2)n1C(C)C)O[Si](C)(C)C(C)(C)C
206 °C	CCCC(CCC)N1Cc2c(C(=O)O)cc(N(C)S(C)(=O)=O)cc2C1=O
110 to 111 °C	Cc1c(NC(=O)c2ccc(OC[C@H]3CCCO3)cc2)ccc2cc(CNCC(C)(C)C)cnc12
98 to 99 °C	C=Cc1ccc(O)c(-n2nc3ccccc3n2)c1
148 °C	COc1ccc(CN(C)CCCSc2ccc(NC(=O)c3cccc4c(=O)c5ccccc5sc34)cc2)cc1OC
139 to 140 °C	CC(C)CCN1CNC(=O)C12CCN(Cc1ccccc1)CC2
153 to 155 °C	CCSc1ccc(/C=C(\NC(=O)c2ccc(OCC(C)C)cc2)C(=O)NCCO)cc1
34 °C	CCCCCCCCCCCCCCCCOCC(CO)CF (stereo unspecified)
126 to 127 °C	OC(Cn1cncn1)(c1ccc(F)cc1)C(F)(F)C(F)(F)C(F)(F)F (stereo unspecified)
205 to 208 °C	Cc1ccc(NC(=O)c2ccccc2)c(C(=O)O)c1
169 to 170 °C	O=[N+]([O-])c1cc(C(F)(F)F)c(Cl)c([N+](=O)[O-])c1Nc1cc(C(F)(F)F)cc(C(F)(F)F)n1
231 to 240 °C	O=C1NN=C(C=Cc2ccc([N+](=O)[O-])cc2)CS1
140 °C	CCOC(=O)C1=C(COCCNS(=O)(=O)c2ccc(Cl)nc2)NC(C)=C(C(=O)OC)C1c1ccccc1Cl (stereo unspecified)
198 °C	Oc1cc(-c2ccc(Cl)cc2Cl)n[nH]1
210 to 212 °C	CCC(=O)Nc1nc(CC(=O)Nc2nnc(C(C)(C)C)s2)cs1
125 to 127 °C	Cc1cc(C)c(Cc2ccc(=O)[nH]n2)c(C)c1
261 to 264 °C	COc1ccc([N+](=O)[O-])c(Nc2ccc3cn[nH]c3c2)n1
187 to 190 °C	CC(=O)NC[C@H]1CN(c2cc(F)c(N3CCS(=O)(=O)CC3)c(F)c2)C(=O)O1
100 to 102 °C	CCCCCCCN(CCN1CCN(CCSc2nc3ncccc3o2)CC1)C(=O)Nc1c(C(C)C)cc(O)cc1C(C)C
161 to 164 °C	CCOc1nc2c(N)nc(OCCc3ccccc3)nc2n1CC
158 to 159 °C	O=C(NCCO)c1cccc(-c2ccnc3cc(Cc4cccc(C(F)(F)F)c4)oc23)c1
128 to 130 °C	COc1ccc(C=Cc2ccncc2)cc1
197 to 199 °C	Cc1cc2oc(=O)c3c(c2cc1[N+](=O)[O-])CCNC3

melting point	Compound
158 to 169 °C	N=C(Cc1ccccc1)Nc1ncccc1OCc1ccccc1Br
109 to 110 °C	COc1cc(C(O)(C(F)(F)F)C(F)(F)F)cc(C)c1NS(C)(=O)=O
113 to 140 °C	COc1ccc(C(=O)c2ccc(Cl)c(Cl)c2)c(Cl)c1Cl
78 to 81 °C	C#CCOc1cc2c(cc1F)CCC2CCNC(=O)CC (stereo unspecified)
67 to 69 °C	CCN(Cc1csc(C2CCCC2)n1)C(=O)N[C@H](C(=O)N[C@@H](Cc1ccccc1)C[C@H](O)[C@H](Cc1ccccc1)NC(=O)OCc1cncs1)C(C)C
100 to 101 °C	CN(C)CCCc1ccc2c(c1)CCCN2C(=O)c1ccc(-c2ccccc2)cc1
250 to 255 °C	C#CCS(=O)(=O)c1cccc([N+](=O)[O-])c1
98 to 100 °C	CC(C)(C)OC(=O)N[C@@H](CC(N)=O)C(=O)N1CCN(Cc2ccccc2)CC1
86 °C	CC(C)NCC(O)COc1ccc(OCCSCC2CC2)cc1 (stereo unspecified)
173 °C	CC(C)(C)Cc1nc2cc(S(=O)(=O)c3ccccc3)ccc2n1CC1CC1
158 to 160 °C	CSC(CC(=O)c1cc(Cl)c(C)c(Cl)c1)C(=O)O (stereo unspecified)
120 to 122 °C	O=C1NC(C(=O)NCCO[N+](=O)[O-])C(c2cccs2)S1 (stereo unspecified)
321 to 325 °C	O=C(O)C1(c2ccc(Nc3nc(C4CCCC4)nc4c3CCC4)cc2)CCCC1
153 to 155 °C	O=C(O)CN1C(=O)N(Cc2cccc([N+](=O)[O-])c2)C(=O)C1O (stereo unspecified)
126 to 132 °C	CC(C)(C)OC(=O)[C@@H]1CC[C@H](NC(=O)CNC(=O)c2ccc(OCc3ccccc3)c(C(C)(C)C)c2)[C@H](C(=O)O)C1
158 °C	OC(CN1CCNC1=S)c1cc(Cl)cc(Cl)c1 (stereo unspecified)
188 to 190 °C	Nc1nc(OC2CCCC2)c2ncn(C3C=CC(CO)C3)c2n1 (stereo unspecified)
75 °C	CS(=O)(=O)NC(=O)CC1(c2ccc(OCc3ccc4ccccc4n3)cc2)CCCC1
54 to 56 °C	CCCCCC(=O)C=P(c1ccccc1)(c1ccccc1)c1ccccc1
225 to 226 °C	O=CNCC1CC2C3CC4C2C4C13 (stereo unspecified)
108 to 111 °C	COc1ccccc1CC(=O)N1CCCc2ncc3ccccc3c21
68 to 70 °C	Cc1cc(OCc2ccc(-c3ccccc3-c3nnn(C(c4ccccc4)(c4ccccc4)c4ccccc4)n3)cc2)c(CO)c(C)n1
117 to 120 °C	CC(C)(C#N)c1cc(C(O)c2cccnc2)cc(C(C)(C)C#N)c1 (stereo unspecified)
177 to 178 °C	CC1C(=S)Nc2c1cc(F)c(F)c2F (stereo unspecified)

Continued, molecule first:

Compound	melting point
Cc1ccc2c(c1)C=Cc1cc(C)ccc1C2c1cn(Cc2nc(C(=O)Nc3nc(CC(=O)O)cs3)cs2)c(=O)[nH]c1=S	200 to 205 °C
N#CC1CN1C(=S)NC(=O)c1ccccc1 (stereo unspecified)	135 to 140 °C
CC(=NNC=O)c1ccncc1Cl	175 °C
c1csc(-c2nc(CCCOc3ccc(CCCn4ccnc4)cc3)co2)c1	99 to 100 °C
N=C1SCCN1c1ccc(C(F)(F)F)cc1[N+](=O)[O-]	153 °C
COCCNC(=O)C1CCC(Nc2ncc3ncnc(Nc4ccc(F)c(Cl)c4)c3n2)CC1 (stereo unspecified)	243 to 246 °C
O=c1ccc(-c2cc(F)c(OC3CCN(C4CCC4)CC3)c(F)c2)n[nH]1	195 to 197 °C
CCOC(=O)c1cc2ccccc2n(C(C)C)c1=O	54 to 57 °C
N#CC(O)c1c(Cl)cccc1Cl (stereo unspecified)	90 °C
COC(=O)c1cccc(OC)c1S(=O)(=O)Cl	106 to 108 °C
BrCc1ccc2c(-c3ccccc3)onc2c1	127 to 128 °C
CCOC(=O)c1c(Cl)c2ccccc2[nH]c1=O	186 °C
CC#Cc1cnc(OC)nc1	88 to 89.5 °C
CN(C)C=NS(=O)(=O)c1cc(CCNC(=O)C(F)(F)F)ccc1OCC1CCCO1 (stereo unspecified)	138 to 140 °C
CCOC(=O)Nc1ccc(N2N=C(C)C(=CNc3ccccc3OC)C2=O)cc1	212 °C
CCN(C/C=C/C#CC(C)(C)C)Cc1cccc(N2C(=O)c3ccccc3C2=O)c1	65 to 66 °C
CONC(=O)c1[nH]c(C)c(-c2nc3ccc(C(=O)c4ccccc4)cc3[nH]2)c1C	203 to 205 °C
Clc1ncc(OC[C@@H]2CCCN2)cc1-c1ccccc1	75 to 80 °C
Cc1ccccc1C=CC=C1SC(=S)N(CC(=O)O)C1=O	210 to 217 °C
CCCOc1ccccc1-c1nc2c(C(=O)O)cccc2c(=O)[nH]1	195 to 197 °C
COc1ccc2c3c1OC1C(=O)CC(C)C4C(C2)N(C#N)CCC314 (stereo unspecified)	237 to 241 °C
CCSc1ccc(NC=O)cc1S(N)(=O)=O	127 °C
CCOC(C)OCC(O)CN1C(CO)=Cc2ccsc2S1(=O)=O (stereo unspecified)	95 to 97 °C
N#Cc1cn(-c2ccc(Cl)c(Cl)c2)c(=O)[nH]c1=O	206 to 208 °C
C#CCOC(=O)C1=C(C)NC(N)=C(C(=O)OCC)C1c1cccc([N+](=O)[O-])c1 (stereo unspecified)	181 °C
Cc1nc(-c2ccccc2F)n(O)c1-c1cccnc1	65 to 75 °C

Compound	melting point
Nc1nc2c(c(Nc3ccc(C(F)(F)F)cc3)n1)-c1ccccc1C2	229 to 231 °C
CC(C)(C)OC(=O)N1CCC(c2ccc(COc3ccc(-c4nc[nH]n4)cc3)nc2)CC1	147 to 150 °C
CN(C)c1ccc(C=CC(=O)c2ccc3c(c2)CCCC3)cc1	134 to 135 °C
Cc1cc(SC2=C(O)CC(CCc3ccsc3CO)(C(C)C)OC2=O)c(C(C)(C)C)cc1N (stereo unspecified)	107 to 115 °C
COC(=O)c1cc(C(=O)NCCN2CCOCC2)cc(-n2cccc2)c1	144 to 146 °C
CC(C)Cn1nnc2cc3c(=O)n(C(C)Cn4ncnn4)nnc3cc2c1=O (stereo unspecified)	132 to 134 °C
CCOC(=O)C1=C(C)N(C(C)=O)C(c2csc(C)n2)=NC1c1cccc(F)c1 (stereo unspecified)	127 to 130 °C
CC(=O)OCCCC#Cc1ccccc1S(N)(=O)=O	136 to 138 °C
Cn1nnc2cccc(C(O)c3cccc(F)c3)c21 (stereo unspecified)	152 °C
COC(=O)c1ccc(NC(C)=O)c(I)c1	140 to 141 °C
COC(=O)COc1ccc(NC(=O)NC(=O)c2ccc(C#N)cc2)cc1	214 to 217 °C
O=C1NC(=O)C(c2ccccc2)=C1Nc1cccc(Cl)c1	188 °C
CSc1sc(C(=O)N(C)C)c2c1C(=O)CC(C)(C)C2	135 to 136 °C
c1ccc(CNc2nccc3ccccc23)cc1	101 to 102 °C
CCCCCOc1ccc2cc(CC[C@@](C)(N)COP(=O)(O)O)ccc2c1	266 to 267 °C
CN1CCc2ccn(S(=O)(=O)c3ccccc3)c2C(c2ccccc2)C1 (stereo unspecified)	115 to 116 °C
Clc1ccc(-c2cc(C3CCN(CCc4ccccc4)CC3)no2)cc1	118 to 120 °C
NC(=O)[C@H](O)[C@@H](O)CO	105 to 107 °C
CP(C)(=O)COC(=O)c1ccccc1Nc1cccc(C(F)(F)F)c1	85 °C
Cc1ccc(C)c(NC(=O)N2CCC(C#N)CC2)c1	187 to 190 °C
Cc1nc2c(N)nc3ccccc3c2n1CCOCC#Cc1ccccc1	143 °C
CC(C)(C)c1cc(-c2nn(Cc3ccccc3)c3ncccc23)cc(C(C)(C)C)c1O	155 to 157 °C
COc1ccc(C2=NN(CC(=O)Nc3ccc(C4=NNC(=O)CC4C)cc3)C(=O)C3CC=CCC23)cc1OC (stereo unspecified)	139 to 141 °C
Cc1nccn1CC1CCC(Nc2ccccc2I)=CC1=O (stereo unspecified)	88 to 100 °C
CC(C)c1cc(Cl)nc(-c2ccc(C#N)cc2)n1	114 °C
COc1ccc2c(c1)nc1snc(C(=O)c3ncc(C)c(OC)c3C)n12	170 to 171 °C
